In patent US20150025031A1, “METABOLIC DOWNREGULATION FOR CELL SURVIVAL” (WAKE FOREST UNIVERSITY HEALTH SCIENCES, priority 2012, published 2015):
Read-outs that look alike come from different tables or passages of the source.

What was measured:
[1] = target: T1, adenosine deaminase (ADA) (Homo sapiens, UniProt P00813); assay: Cell viability with adenosine derivatives in presence or absence of ADA, normoxic conditions (Example 2); format: cell-based; conditions: presence of ADA
T1 construct: purchased Sigma
T1 sequence (P00813 1-363): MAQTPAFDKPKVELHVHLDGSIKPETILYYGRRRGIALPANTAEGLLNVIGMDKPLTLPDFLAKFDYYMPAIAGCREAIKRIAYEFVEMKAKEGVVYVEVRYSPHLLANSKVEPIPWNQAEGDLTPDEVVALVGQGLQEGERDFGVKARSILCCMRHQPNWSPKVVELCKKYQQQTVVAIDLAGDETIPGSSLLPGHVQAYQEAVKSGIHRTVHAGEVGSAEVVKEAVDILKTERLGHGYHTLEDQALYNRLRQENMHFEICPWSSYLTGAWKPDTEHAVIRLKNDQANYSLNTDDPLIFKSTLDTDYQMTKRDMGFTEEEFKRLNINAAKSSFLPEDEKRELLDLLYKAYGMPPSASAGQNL
Experimental: Three known ADA inhibitors were examined to evaluate the efficacies of adenosine derivatives: cladribine, pentostatin, and fludarabine phosphate. They have similar structures and molecular weights compared to adenosine, but different functional groups in the structures. Metabolic rate of cells were indirectly analyzed by cell viability in the presence or absence of adenosine derivatives and ADA in various doses. Cell viability with the drugs was evaluated under normoxic conditions.
Adenosine (Sigma-Aldrich), cladribine (Sigma, 2-Chloro-2′-deoxyadenosine), pentostatin (Tocris biosciences), and fludarabine phosphate (LGM Pharma) were used throughout this study.

C2C12 murine myoblasts = assay: C2C12 cell counts (PicoGreen dsDNA) under 0.1% hypoxia, then normoxia; format: cell-based
Experimental: C2C12 murine myoblasts (ATCC) were cultured in a growth medium containing Dulbecco's modified Eagle's medium (DMEM, Gibco) supplemented with 10% FBS, 500 U/mL penicillin and 500 μg/mL streptomycin.
(§1) Hypoxic condition was maintained with a gas mixture containing 0.1% O2, 5% CO2 and 94.9% N2 at 37° C. and full humidity in an X-Vivo System (Biospherix). […] The hypoxic groups were then placed to the hypoxic chamber and incubated up to day 11, whereas the normoxic group continued to be incubated in the regular incubator. No medium change was made on both normoxic and hypoxic groups up to day 11. After transfer to normoxic conditions, cells were cultured in the regular incubator with an exchange of no adenosine-containing, fresh medium every third day.
Cell proliferation of each group was determined by a Quanti-iT PicoGreen dsDNA Kit (Invitrogen). After washed with PBS, cells were lysed with 55 μL of RIPA buffer (Sigma) on ice for 5 min, then the supernatants were mixed with an equal volume of PicoGreen dsDNA quantitation reagent, a fluorescent DNA dye (excitation at 480 nm; emission at 520 nm). The DNA content was quantified using a SpectraMax M5 microplate reader (Molecular Devices). The number of cells was calculated using a standard curve plotted from fluorescent readings of serial dilutions of a known concentration of cells.
Cell viability was visualized using a calcein AM (Invitrogen) where viable cells fluoresce green through the reaction of calcein AM.

C2C12 cells [2] = assay: Myotube formation of hypoxia-survived C2C12 cells; format: cell-based, murine; conditions: after 11 days adenosine under hypoxia, 2% horse serum medium 6 days
Experimental: After C2C12 cells that survived the hypoxic stress in the presence of adenosine were transferred to normoxic conditions without further supply of adenosine, they were cultured continuously for 3 days in the growth medium followed by 2% horse serum-containing medium for another 6 days. […] Nuclei were counterstained with DAPI (Vector). Photomicrographs were obtained using a Leica inverted fluorescence microscope. Myotube formation was also observed by Giemsa staining (1:20, Sigma-Aldrich) using a Zeiss upright light microscope.

C2C12 cells [3] = assay: Intracellular ATP level of C2C12 cells under hypoxia; format: cell-based, murine; conditions: 5 mM adenosine
Experimental: as §1
Intracellular ATP was measured by using the ATP Bioluminescence Assay Kit HS II (Roche Applied Science). Cells were lysed with 50 μL of lysis buffer and transferred into a well, then 50 μl of luciferase reagent was added to it. After mixing, the light emitted was measured and integrated for 10 seconds by using a SpectraMax M5 luminometer (Molecular Devices). The blank value (from a well containing no ATP) was subtracted from each sample's raw data. ATP concentrations were calculated from the linear part of the standard curve prepared with serial dilutions of a known concentration of ATP and expressed as moles per cell. This, in turn, was re-calculated to a percent ATP of that expressed in the cells grown under normoxic condition.

Soleus muscle tissues = assay: Survival of soleus muscle tissue under hypoxia (H&E, EthD-1 dead assay); format: cell-based, Sprague Dawley rats; conditions: 5 mM adenosine, 10 days hypoxic culture
Experimental: Soleus muscle tissues dissected immediately after sacrifice of Sprague Dawley rats (17 weeks old, 380-400 g, Harlan) were assigned to one of three groups in the growth medium: (1) native tissue group (2) no adenosine-treated hypoxic group and (3) hypoxic group with 5 mM adenosine supplemented in 2 mL of medium. The media was changed every third day. At day 10, a half of the tissue sample was fixed in 10% neutral buffered formalin (Sigma-Aldrich), 6 μm sections were generated by a cryotome (Leica), and stained with hematoxyline and eosin (H&E). Microscopic analysis was performed using a light microscope (Zeiss). Dead assay was assessed on the remaining tissues using 4 μM ethidium homodimer-1 (EthD-1, Invitrogen) to stain dead cells with damaged cell membranes. The stained sections were observed using a fluorescent microscope (Leica). The number of dead cells was quantitated using the “analyze particle” method with Image J software (U.S. National Institute of Health) on the fluorescence images, and its percentage was calculated based on the number of DAPI-stained cells on each section.

[4] = tested on: Rat tibialis anterior (TA) muscle tissues; assay: In vitro ischemic tibialis anterior muscle tissue survival (H&E, TUNEL); format: cell-based, Sprague Dawley rats; conditions: 5 mM injected, 3 days incubation
Experimental: Rat tibialis anterior (TA) muscle tissues were dissected immediately after sacrifice of Sprague Dawley rats (17 weeks old, 380-400 g, Harlan), injected with blank, 5 mM of adenosine or cladribine, and then incubated in 5 mL of complete media for 3 days.
The tissue samples were fixed in 10% neutral buffered formalin (Sigma-Aldrich), 6 μm sections were generated by a cryotome (Leica), and stained with hematoxyline and eosin (H&E) and with TUNEL staining. Microscopic analyses were performed using a light microscope (Zeiss M1) and ImagePro software.

C2C12 mouse myoblasts [5] = conditions: 5 mM
C2C12 mouse myoblasts [6] = conditions: 5 mM; for cellular metabolism under hypoxia: MTS

**Q.** Which “conversion by ADA / stability towards adenosine degrading enzymes” value [1] does the source give for Nc1ncnc2c1ncn2[C@@H]1O[C@H](CO)[C@@H](O)[C@H]1O [adenosine] here?
**A.** lost its activity in presence of ADA

**Q.** And the “growth recovery after transfer to normoxic conditions” value (C2C12 murine myoblasts; 0.05 mM adenosine, after 11 days 0.1% hypoxia)?
**A.** never recovered even after transfer to normoxic conditions

**Q.** And the “number of cells maintained after 11 days of hypoxic stress” value (C2C12 murine myoblasts; 1, 2 and 5 mM adenosine, 0.1% hypoxia, day 11)?
**A.** two to four

**Q.** And the “proliferation after transfer to normal oxygen tension” value (C2C12 murine myoblasts; 1, 2 and 5 mM adenosine, after 11 days 0.1% hypoxia)?
**A.** resumed their proliferation at a growth rate comparable to that in normoxic cells

**Q.** What about the “most effective adenosine concentration” value (C2C12 murine myoblasts; C2C12 survival, 0.1% hypoxia) of the same compound?
**A.** 5 mM

**Q.** What about the “time for onset of re-proliferation” value (C2C12 murine myoblasts; after transfer to normoxia, 1, 2, 5 mM) of the same compound?
**A.** concentration-dependent

**Q.** What about the “myotube formation (differentiating capability)” value (C2C12 cells [2]) of the same compound?
**A.** showed capability of forming myotubes

**Q.** And the “intracellular ATP level, percentage of that in normoxic cells” value (C2C12 cells [3]; 0.1% hypoxia, day 11)?
**A.** 18%

**Q.** What about the “intracellular ATP level vs control cells” value (C2C12 cells [3]; throughout the hypoxic duration, p<0.05) of the same compound?
**A.** consistently higher ATP level

**Q.** And the “degree of muscle damage (H&E)” value (Soleus muscle tissues)?
**A.** tissues cultured without adenosine showed more damage than those treated with 5 mM adenosine

**Q.** And the “dead cells as percentage of number of DAPI-stained cells” value (Soleus muscle tissues; EthD-1)?
**A.** 46%

**Q.** And the “number of live nuclei (TUNEL)” value [4]?
**A.** slightly increased live nuclei

**Q.** And the “proliferation after drug and hypoxia removed” value (C2C12 mouse myoblasts [5]; treated with ADA)?
**A.** failed to revive after the hypoxia and drug was removed

**Q.** What about the “proliferation after drug and hypoxia removed” value (C2C12 mouse myoblasts [5]; used alone (no ADA)) of the same compound?
**A.** started to regain their normal proliferation

**Q.** And the “cell population under hypoxic condition” value (C2C12 mouse myoblasts [5]; used alone (no ADA), 7 days hypoxia)?
**A.** maintain cell population significantly lower than the no treatment control

**Q.** What about the “cellular metabolism under hypoxia” value (C2C12 mouse myoblasts [6]; treated with ADA) of the same compound?
**A.** failed to reduce cellular metabolism and showed increased metabolic activity when compared to control

**Q.** What about the “metabolism after drug and hypoxia removed” value (C2C12 mouse myoblasts [6]; used alone (no ADA)) of the same compound?
**A.** recovered normal metabolism

**Q.** And the “cellular metabolism under hypoxia” value (C2C12 mouse myoblasts [6]; used alone (no ADA))?
**A.** minimized cellular metabolism
